The target in test [1] is T1, PSMA protein isolated from prostate cancer cell LNCaP (Homo sapiens, UniProt Q04609).
T1 construct: membrane portion of PSMA enzyme was extracted from PSMA+ LNCaP cell line; endogenous in cells; host or cells: LNCaP (membrane pellet after 100,000 x g ultracentrifugation)
As to the kind of experiment: PSMA or GCPII enzyme inhibition (NAALADase) assay, Amplex Glutamate kit. Type of test: biochemical. Particulars: NAAG 30 nM substrate, 60 min, fluorescence.
Description: Briefly, PSMA enzyme was extracted from membrane lysates of LNCaP cell lines after separating the soluble cytosolic PSM′ portion by ultracentrifugation at 100,000×g. The PSMA enzyme (8.3027 ng, 100 μL) free from cytosolic portion was incubated with various concentrations of the AAPT inhibitor (0.1 nM to 1000 nM, 100 μL) in the presence of NAAG (30 nM, 50 μL) for 60 min in a 24-well plate. The amount of glutamic acid released by the hydrolysis of NAAG during competitive inhibition by AAPT inhibitor was measured by incubating each well with a working solution of Amplex Red reagent (100 uM, 50 μL) for 30 min at 37° C. The fluorescence emission from each well, proportional to the amount of released glutamic acid, was measured using Synergy H1 multimode plate reader (BioTek Instruments, Inc., Winooski, VT, USA) at an excitation and emission wavelength of 530 nm and 590 nm respectively.
In the first trial, the enzyme inhibition analysis was performed by incubating PSMA enzyme with increasing concentrations of inhibitor, AAPT.
Fluorescent-based enzyme inhibition assay was performed to determine the IC50 value of the newly synthesized GCPII inhibitors 1-3 (AAPT ligands). Amplex Glutamate kit was purchased from Invitrogen, and a working solution of Amplex Red reagent (5 mL, 100 μM) was prepared. Meanwhile, membrane portion of PSMA enzyme was extracted from PSMA+ LNCaP cell line by following a reported protocol. Briefly LNCaP cells (1 million) were harvested in HEPES buffer (1 mL) and lyzed twice using probe sonicator for 30 s. […] The amount of glutamic acid released by the hydrolysis of NAAG was measured by incubating a working solution of Amplex Red reagent (50 μL, 100 μM) for 30 min at 37° C. The fluorescence emission after the oxidation of Amplex Red reagent was measured by using Synergy H1 multimode plate reader (BioTek Instruments, Inc., Winooski, VT, USA). The excitation wavelength was fixed at 530 nm, and the fluorescence emission is measured at 590 nm. […]

In test [2] the target is T2, PSMA protein (Homo sapiens, UniProt Q04609).
T2 construct: endogenous in cells; host or cells: LNCaP
As to the kind of experiment: Binding affinity of 99mTc AAPT-PCa bioconjugates in PSMA+ LNCaP cells, gamma counter. The note with it: 99mTc bioconjugate, counts per minute, 1 h incubation, read-out: dissociation constant (KD), binding affinity. As to the method:
In an embodiment, FIG. 24, evaluation of binding affinity of AAPT-PCa Bioconjugate 8a in PSMA+ LNCaP cells was done, using gamma scintillation counter. The binding affinity constant of PSMA targeted conjugate, 8a, to target PSMA was determined in vitro in LNCaP cells by measuring the counts per minute for different concentrations of the ^99mTc bioconjugate 8a in triplicate.
A solution of stannous chloride dihydrate (0.80 mg, 0.003 mmol) in 0.2 M hydrochloric acid (0.8 mL) was added to a solution of sodium-α-D-glucoheptonate dihydrate (800 mg, 2.815 mmol) in nitrogen-purged water. Chelating bioconjugate 8a-g (0.001 mmol) was added to the reaction mixture while continuous nitrogen purging. The pH of the solution was adjusted to 6.8 using 0.1 N sodium hydroxide solution. After the pH adjustment nitrogen-purged water was added to achieve a total volume of 10 mL. The solution was then dispensed in 5 mL vials (1 mL/vial) under nitrogen atmosphere and lyophilized for 48 h. […]
The cells were then gently dissociated with trypsin and centrifuge to obtain a pellet. […] The cell pellet free of unbound bioconjugate was resuspended in the ice-cold FACS buffer to evaluate cell-bound radioactivity using a gamma counter. The dissociation constant Kd was calculated using graph pad prism 7.04.

Test [3] concerns the target T2, PSMA protein. As to the kind of experiment: Binding affinity of fluorescent conjugates in LNCaP cells by flow cytometry (FACS). The note with it: mean fluorescence intensity, triplicate, read-out: dissociation constant (KD). As to the method:
In an embodiment in FIG. 15, Evaluation of binding affinity of PSMA targeted fluorescent conjugate 22, AAPT-C17201, using flow cytometry analysis. The binding affinity constant of PSMA targeted fluorescent conjugate, AAPT-C17201, to target PSMA was determined in vitro in LNCaP cells by measuring the mean fluorescence intensity per cell for different concentrations of the fluorescent conjugate in triplicate using Fluorescence Activated Cell Sorting (FACS) study.
Background: A flow cytometer gives signals particle by particle.

Values joined by “and” are separate entries in the source; they are usually repeats but may differ in a detail not shown here. Equal values may be shown once.

T1 sequence (Q04609 whole entry): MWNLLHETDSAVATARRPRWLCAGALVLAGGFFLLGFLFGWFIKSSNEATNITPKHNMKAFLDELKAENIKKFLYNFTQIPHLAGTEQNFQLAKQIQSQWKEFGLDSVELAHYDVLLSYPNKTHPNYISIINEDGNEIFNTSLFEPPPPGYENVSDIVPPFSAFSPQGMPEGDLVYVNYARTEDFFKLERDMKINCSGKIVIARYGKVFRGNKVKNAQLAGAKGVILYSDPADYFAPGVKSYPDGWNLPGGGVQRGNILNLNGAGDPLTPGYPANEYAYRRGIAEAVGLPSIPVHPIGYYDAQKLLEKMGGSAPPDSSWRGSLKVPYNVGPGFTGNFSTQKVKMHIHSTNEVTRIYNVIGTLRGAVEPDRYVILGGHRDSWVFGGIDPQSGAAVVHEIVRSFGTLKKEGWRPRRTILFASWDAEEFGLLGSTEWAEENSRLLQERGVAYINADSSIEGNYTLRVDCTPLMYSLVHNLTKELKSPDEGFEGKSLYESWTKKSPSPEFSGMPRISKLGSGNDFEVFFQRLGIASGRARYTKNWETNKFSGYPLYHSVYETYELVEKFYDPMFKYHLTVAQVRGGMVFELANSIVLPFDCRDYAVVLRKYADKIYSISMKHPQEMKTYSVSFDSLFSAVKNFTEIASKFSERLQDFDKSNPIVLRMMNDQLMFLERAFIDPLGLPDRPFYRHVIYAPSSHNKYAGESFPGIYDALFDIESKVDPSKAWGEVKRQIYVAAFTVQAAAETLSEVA
T2 sequence (Q04609 whole entry): as above

Take `O=C(O)CC[C@H](NCC(=O)N[C@@H](CCC(=O)O)C(=O)O)C(=O)O` [Ligand 1]: the IC50 – broadly, the midpoint of a concentration-inhibition curve – in test [1] is 38.5 nM and 95 nM and 78 nM.

For the molecule `NC(CNC(=O)[C@H](Cc1cccc2ccccc12)NC(=O)[C@H](Cc1cccc2ccccc12)NC(=O)CCCCCCCNC(=O)CCC(NC(=O)CNC(CCC(=O)O)C(=O)O)C(=O)O)C(=O)N[C@@H](CC(=O)O)C(=O)N[C@@H](CS)C(=O)O` (stereo partly shown) [Ligand 8g], in test [2], the Kd – broadly, the free concentration of one partner at which half of the binding sites on the other are occupied at equilibrium, for simple one-to-one binding – came to 42 nM.

Regarding `CCN(CC)c1ccc2c(-c3ccccc3C(=O)NCCCC[C@H](NC(=O)CCCCCCCNC(=O)[C@H](Cc3ccccc3)NC(=O)[C@H](Cc3ccccc3)NC(=O)CCCCCCCNC(=O)CC[C@H](NC(=O)CN[C@@H](CCC(=O)O)C(=O)O)C(=O)O)C(=O)N[C@@H](CC(=O)O)C(=O)NCCN)c3ccc(=[N+](CC)CC)cc-3oc2c1` [Ligand 22], the Kd in test [3] was found to be 85 nM.

For `CCN(CC)c1ccc2c(-c3ccccc3C(=O)NCCCC[C@H](NC(=O)CCCCCCCNC(=O)c3ccc(CNC(=O)[C@H](Cc4ccccc4)NC(=O)[C@H](Cc4ccccc4)NC(=O)CCCCCCCNC(=O)CC[C@H](NC(=O)CN[C@@H](CCC(=O)O)C(=O)O)C(=O)O)cc3)C(=O)N[C@@H](CC(=O)O)C(=O)NCCN)c3ccc(=[N+](CC)CC)cc-3oc2c1` [Ligand 25], the Kd in test [3] was 130 nM.

Values taken from patent US20250090698A1, “SMALL MOLECULE INHIBITORS FOR EARLY DIAGNOSIS OF PROSTATE SPECIFIC MEMBRANE ANTIGEN CANCERS AND NEURODEGENERATIVE DISEASES” (INDIAN INSTITUTE OF TECHNOLOGY INDORE, priority 2018, published 2025).
